# Non-standard residues stand in square brackets, D forms with d. No end group written: not given here. pGlu = O=C1CC[C@@H](C(=O)O)N1
# How the values were obtained:
# P. berghei ookinetes = assay: P. berghei ookinete viability in vitro (erythrosin B); assay type: cell-based, Plasmodium berghei; settings: for Average ookinete viability (3 reps), peptide / Reduction in ookinete viability: 30 min; for Reduction in ookinete viability: versus control
# Method: Our primary aim was to target parasites in mosquitoes before they cross the midgut wall, therefore AMPs were first assessed for their ability to kill ookinetes in vitro. […] Ookinete cultures of P. berghei were established from gametocytaemic blood as previously described. Parasites were enriched using cold 0.17M ammonium chloride after 18 h of culture and washed thoroughly with PBS (phosphate buffered saline). Parasites were seeded in triplicate wells of a 96-well microtitre plate at a density of 1×10^5/ml in a volume of 47.5 µl Schneider's insect medium (Invitrogen) with 2.5 µl of the test AMP (final concentration of 50 µM). Ookinetes were incubated for 30 min in conjunction with triplicate control wells containing medium with 2.5 µl of water instead of AMP. A sub-sample of parasites was then added to an equal volume of 5% erythrosin B to assess viability (150 ookinetes in total, taken from 3 wells). Each of the 33 AMPs was screened in this way and assays were performed 3 times. AMPs displaying a high degree of toxicity (>90% of ookinetes displaying erythrosin B staining) underwent further ookinete assays using a concentration of 100 µM AMP. To assess synergistic effects, combinations of two peptides were also tested at a concentration of 25 µM per AMP, in the assay described above.
# [1] = test system: Anopheles gambiae Sua 4.0 cells; assay: Sua 4.0 mosquito cell viability (erythrosin B exclusion); assay type: cell-based; set-up: dose or concentration left out as unconfirmed; settings: after 48 h culture; for Average viability of cells (3 replicates), peptide: erythrosin B exclusion, 100 cells in triplicate wells; for Reduction in cell viability: versus control
# Method: (§1) To establish potential effects of AMPs on mosquito cells, the An. gambiae Sua 4.0 cell line was used. This facilitated an initial high-throughput screening and provided insights into AMP toxicity, mode of action (lytic or other) and speed of action. Sua 4.0 cells were maintained at 27°C in Schneider's insect medium supplemented with 10% FBS (foetal bovine serum) in T25 culture flasks (Fisher, UK).
# (§2) Each AMP was tested separately to establish if it affected cell viability and growth. […] Cells were maintained for 3, 6, 24 or 48 h, after which they were resuspended and a sub-sample from duplicate wells counted using a haemocytometer. To establish cell viability after 48 h (whether simply arrested in development or non-viable), resuspended cells were added to an equal volume of 5% erythrosin B vital dye and viable cells excluding the stain were counted. The viability of 100 cells in triplicate wells was recorded. Each AMP assay was performed in triplicate and included a negative control minus the peptide (5 µl of water alone added to the medium) and a further control of 5 µl of 10% SDS (sodium dodecyl sulphate) substituted for the AMP as this causes 100% cell lysis.
# P. falciparum = assay: Field P. falciparum from gametocyte carriers membrane-fed to An. gambiae (Mali); assay type: in vivo, Plasmodium falciparum; settings: Replicate 1, 50 µM; for Oocyst prevalence (oocyst positive mosquitoes), peptide: blood of gametocyte carriers, progeny of field An. gambiae; for Oocyst intensity (mean number of oocysts per gut, range in parentheses), peptide: field parasites and mosquitoes
# From the text: Nyaganabougou, a village approximately 60 km south-west of the Malian capital, Bamako, was used as a site for the source of donors of malaria-infected blood. Due to its proximity to the river Niger, which provides perennial mosquito breeding sites, Nyaganabougou has high numbers of infected individuals and an extended transmission season. Mosquitoes used to establish the An. gambiae Mali colony used for this study were originally collected in the village of Kenieroba (a distance of 15 km from Nyaganabougou). Potential male and female gametocyte carriers between the ages of 6–10 were screened by thick smear and parasite species and density determined by local staff, led by Saibou Doumbia.
# Gametocyte carriers were taken to the Malaria Research and Training Centre at the University of Bamako for blood donation. Approximately 4 ml of blood was extracted from carriers and immediately divided into 3 Hemotek membrane feeders for testing 2 separate AMPs and one control for each carrier. Peptides were added to 950 µl of gametocytaemic blood for a final concentration of 50 µM. All parasite-positive individuals were subsequently treated appropriately for parasites and associated symptoms, as determined by, and carried out by, local health workers in Nyaganabougou.
# Approximately 120 adult female An. gambiae (Mali, 4–7 days old) were starved overnight, and allowed to feed on the gametocytaemic blood/AMP mix for 30 min. Engorged females were maintained on 10% glucose with 0.05% PABA for 8 days before dissection. No oviposition sites were provided so that fecundity could be measured by determining retained eggs. Mosquito wing length, numbers of retained eggs and oocysts were recorded, and triplicate peptide experiments were carried out on different mosquito cohorts, using blood from different donors. Where possible, a minimum of 50 mosquitoes were dissected for each condition.
# [2] = test system: An. gambiae (Mali strain); assay: Mosquito oviposition after blood feed containing AMP; assay type: in vivo, Anopheles gambiae; settings: for Significance of effect on oviposition: 50 µM AMP, one-way ANOVA, peptide vs control; for Mean no. of eggs laid per mosquito, peptide: after first feed with 50 µM AMP, eggs laid over two nights, averaged per surviving mosquito, 3 or 4 replicates
# Method: (§3) Female An. gambiae (Mali strain, 3–5 days old) were used to establish the effects of AMPs on mosquito longevity and fecundity in the absence of confounding factors introduced with parasite infection. Two hundred 3–6 day old females were fed on human O+ whole blood supplemented with 50 µM AMP (or water control, 1 ml total volume) via feeding chambers of a Hemotek membrane feeding system. Fully engorged mosquitoes were randomly moved into four separate cages, each containing 25 mosquitoes, to facilitate monitoring. Mortality rates were recorded daily for a 10-day period, and oviposition sites were provided on the second and third night post-feeding. A second blood feed containing the same AMP was administered 7 days later to mimic the likelihood that mosquitoes would feed at least twice in the field during the development of sporogonic stages of the malaria parasite. Oviposition sites were again provided to assess fecundity through the number of eggs laid as an average per surviving mosquito. Assays for each AMP were repeated in triplicate on separate generations of mosquitoes. Due to egg retention under experimental conditions, egg production is best measured by dissecting mosquitoes that have not been provided with an oviposition site. However, this is not a feasible method of determining fecundity when longevity is also being measured.
# P. berghei = P. berghei infections in Anopheles stephensi (oocyst prevalence and intensity); assay type: in vivo, Plasmodium berghei; settings: for Prevalence (proportion of infected mosquitoes), peptide: 50 µM peptide in gametocytaemic mouse blood fed to An. stephensi; for Intensity (mean number of oocysts, range in parentheses), peptide: 50 µM peptide, An. stephensi
# Method: To assess the effects of AMPs on parasites in vivo, mouse blood containing P. berghei gametocytes was obtained by cardiac puncture and 475 µl was rapidly mixed with 25 µl (50 µM final concentration) of AMP. This mixture was fed to 100 nulliparous 3–5 day old female An. stephensi. A further 475 µl of blood from the same infection was mixed with 25 µl of distilled water to act as a control. Mosquitoes were maintained at 19°C for optimum parasite development. Between 30 and 50 mosquitoes were dissected after 10 days. Mosquito wing length, numbers of retained eggs and oocysts were recorded in triplicate experiments carried out on different mosquito cohorts.
# [3] = test system: An. gambiae (Mali strain); assay: Mosquito longevity after blood feeds containing AMP; assay type: in vivo, Anopheles gambiae; settings: for Significance of effect on longevity over 10 days: 50 µM AMP, Kaplan-Meier, Wilcoxon, peptide vs control; for Percent alive, peptide: over 10 days, 50 µM AMP in human blood, feeds on days 0 and 7, 3 or 4 replicates
# Method: as §3
# [4] = test system: Anopheles gambiae Sua 4.0 cells; assay: Sua 4.0 mosquito cell growth (cell counts); assay type: cell-based; settings: 25 µM AMP; for Average number of cells over 3 replicates, peptide: seeded 30×10^4/ml, mean of 3 experiments
# Method: as §1, §2
# [5] = 50 µM of single peptide, n = 150 ookinetes per treatment per replicate
Molecule,"Average viability of cells (3 replicates), peptide [1] [%]",Reduction in cell viability [1] [%],"Oocyst prevalence (oocyst positive mosquitoes), peptide (P. falciparum)","Oocyst intensity (mean number of oocysts per gut, range in parentheses), peptide (P. falciparum)",Significance of effect on oviposition [2],"Mean no. of eggs laid per mosquito, peptide [2]","Average ookinete viability (3 reps), peptide (P. berghei ookinetes; [5]) [%]",Reduction in ookinete viability (P. berghei ookinetes; 50 µM of single peptide) [%],"Average ookinete viability (3 reps), peptide (P. berghei ookinetes; 100 µM of single peptide) [%]",Reduction in ookinete viability (P. berghei ookinetes; 100 µM of single peptide) [%],"Prevalence (proportion of infected mosquitoes), peptide (P. berghei; Replicate 1)","Intensity (mean number of oocysts, range in parentheses), peptide (P. berghei; Replicate 1)","Prevalence (proportion of infected mosquitoes), peptide (P. berghei; Replicate 2)","Intensity (mean number of oocysts, range in parentheses), peptide (P. berghei; Replicate 2)","Prevalence (proportion of infected mosquitoes), peptide (P. berghei; Replicate 3)","Intensity (mean number of oocysts, range in parentheses), peptide (P. berghei; Replicate 3)",Significance of effect on longevity over 10 days [3],"Percent alive, peptide [3] [%]",also measured
Scorpine,,,,,,,,,,,,,,,,,,,"Efficacy against malaria parasites (in words) (P. berghei ookinetes; in our hands, rodent or human malaria, test not specified further, actual concentration may have been lower than expected): not effective against rodent or human malaria"
CC[C@H](C)[C@H](N)C(=O)N[C@@H](CC(C)C)C(=O)N1CCC[C@H]1C(=O)N[C@@H](Cc1c[nH]c2ccccc12)C(=O)N[C@@H](CCCCN)C(=O)N[C@@H](Cc1c[nH]c2ccccc12)C(=O)N1CCC[C@H]1C(=O)N[C@@H](Cc1c[nH]c2ccccc12)C(=O)N[C@@H](Cc1c[nH]c2ccccc12)C(=O)N1CCC[C@H]1C(=O)N[C@@H](Cc1c[nH]c2ccccc12)C(=O)N[C@@H](CCCNC(=N)N)C(=O)N[C@@H](CCCNC(=N)N)C(N)=O [Indolicidin],61,36,,,,,,,,,,,,,,,,,
"[pGlu]GMIGTLTSKRIKQ [Levitide, Isolated from skin secretions of Xenopus laevis]",,,8% (60),<1 (0–1),,,,,,,,,,,,,,,
"GLLKRIKTLL [Anoplin, 10 aa peptide isolated from the solitary wasp, homology to Mastoparan X]",,,,,N/S,36,10,89,2,98,66% (44),21 (0–147),98% (50),74 (0–580),100% (50),177 (1–666),N/S,80,
"RRWQWRMKKLG [Lactoferricin B, Product of pepsin cleavage of bovine lactoferrin]",,,46% (37),2 (0–17),,,,,,,,,,,,,,,
"CKQSCSFGPFTFVCDGNTK (also: bicyclic or more (positions not given here)) [Duramycin, A lantibiotic from bacteria, 19 aa (Sigma D3168)]",0,100,,,N/S,39,11,88,1,99,80% (50),17 (0–114),88% (50),59 (0–294),98% (50),135 (0–319),N/S,84,"Reduction in cell number (compared to control) ([4]; 3 hrs in culture): 42%; Average number of cells over 3 replicates, peptide ([4]; 3 hrs in culture, haemocytometer count of duplicate wells): 180000 mL⁻¹; Reduction in cell number (compared to control) ([4]; 24 hrs in culture): 73%; Average number of cells over 3 replicates, peptide ([4]; 24 hrs in culture): 130000 mL⁻¹; Reduction in cell number (compared to control) ([4]; 48 hrs in culture): 88%; Average number of cells over 3 replicates, peptide ([4]; 48 hrs in culture): 90000 mL⁻¹"

# Reference: PMC3836994, “Killer Bee Molecules: Antimicrobial Peptides as Effector Molecules to Target Sporogonic Stages of Plasmodium” (PLoS Pathogens, 2013)
